According to patent US20050054722A1, “Inhibition of two-component signal transduction systems” (Unisearch Limited,, priority 1999, published 2005):

Legend:
[1] = tested on: Bacillus subtilis strain ATCC 6633 and NCTC 10073; assay: Growth curves, Bacillus subtilis; type: cell-based; settings: compound added at 8-9 hours of growth, FIG. 1
Protocol: The compound was added at 8-9 hours, as denoted by the arrows, after the cultures had been growing. B. subtilis has a two component system that, when deleted, results in lysis and cell death.
(§1) Growth curve method. Bacteria are grown overnight in standard medium. The following morning, the cells were inoculated into fresh medium at 1% (a 1 in 100 dilution). Furanones were added either at the beginning of growth (time 0) or, as was the case for the B. subtilis experiments, the results of which are shown in FIG. 1, during the mid-logarithmic phase of growth. Growth was then monitored regularly by spectrophotometric readings, at a wavelength of 610 nm.

Staphylococcus aureus = assay: Minimum inhibitory (growth) concentration, S. aureus; type: cell-based; settings: growth curves, OD 610 nm
Protocol: as §1, with “nm. Using the type of growth described above, the minimum growth inhibitory concentration of furanones was determined for S. aureus and Streptococcus spp. were determined for a range of compounds.” for “nm.”

[2] = tested on: CopS/CopR two component signal transduction system; assay: CopS/CopR assay (cop'-lacZ, Cu2+-induced); type: cell-based, Pseudomonas syringae pv. syringae; settings: for cop'-lacZ expression: 0.075 mM CuSO4, 6.5 hours
Protocol: P. syringae pv syringae PS61 (pCOP38)(pPT23D) was grown on SWM media (Kinscherf and Willis, 1999) at room temperature with shaking for 48 hours. Five μg/ml streptomycin, 15 μg/ml chloramphenicol and 1.0 mM CuSO4 were added to maintain plasmids. This culture was used to inoculate 50 ml SWM media in side-arm flasks with the addition of antibiotics. These cultures were incubated at room temperature with shaking for 16 hours (OD610=0.2) at which point CuSO4 was added to a concentration of 0.075 mM (CuSO4 solution made up in MQ water).
The test compound or mixtures of compounds were dissolved in ethanol and added to cultures to give the required final concentrations. Equal volumes of ethanol were added to Cu^2+ negative and positive cultures. Cultures were incubated for 6.5 hours at room temperature with shaking before being placed on ice. Samples were then removed for β-galactosidase assays. β-galactosidase assays were carried out in the same manner as those for the Taz assay described above.
The effect of furanone compound 3 on the CopS/CopR two component signal transduction system that regulates copper resistance in Pseudomonas syringae pv. syringae (Mills et al., 1993) was assessed. […] However, there appears to be no difference in terms of lacZ expression between the two concentrations (p>0.15).

[3] = tested on: P. syringae var tomato BB27 swarming (GacS/GacA); assay: GacS/GacA assay (swarming on 0.4% agar SWM plates); type: cell-based, Pseudomonas syringae var. tomato
Protocol: P. syringae var tomato BB27 was grown overnight in SWM media at room temperature. This culture was used to stab inoculate SWM plates made up with 0.4% agar and incubated at room temperature (20° C.). The culture was also used to stab inoculate sets of SWM plates (0.4% agar) that bad been made up with 25 μg/ml and 50 μg/ml of the test compound (stock solutions made up in ethanol). These plates were also incubated at room temperature for 36 hours before being examined for swarming activity and photographed. Before use all 0.4% agar SWM plates were allowed to air-dry for two hours in a laminar flow cabinet at room temperature.
Furanones interfere with the “swarming” response of Pseudomonas syringae, which is regulated by the GacS/GacA two-component signal transduction system (Kinscherf and Willis, 1999).

Streptococcus spp. = assay: Minimum inhibitory (growth) concentration, Streptococcus spp.; type: cell-based; settings: growth curves, OD 610 nm
Protocol: as §1, with “nm. Using the type of growth described above, the minimum growth inhibitory concentration of furanones was determined for S. aureus and Streptococcus spp. were determined for a range of compounds.” for “nm.”

S. aureus = settings: cited from earlier work
E. faecium = settings: cited from earlier work
Streptococcus pneumoniae = settings: cited from earlier work
HPK NRII = HPK NRII (Escherichia coli, UniProt P0AFB5); settings: Hilliard et al. 1999; cited from earlier work
S. aureus cells = settings: cited from earlier work

HPK NRII, sequence (P0AFB5 whole entry): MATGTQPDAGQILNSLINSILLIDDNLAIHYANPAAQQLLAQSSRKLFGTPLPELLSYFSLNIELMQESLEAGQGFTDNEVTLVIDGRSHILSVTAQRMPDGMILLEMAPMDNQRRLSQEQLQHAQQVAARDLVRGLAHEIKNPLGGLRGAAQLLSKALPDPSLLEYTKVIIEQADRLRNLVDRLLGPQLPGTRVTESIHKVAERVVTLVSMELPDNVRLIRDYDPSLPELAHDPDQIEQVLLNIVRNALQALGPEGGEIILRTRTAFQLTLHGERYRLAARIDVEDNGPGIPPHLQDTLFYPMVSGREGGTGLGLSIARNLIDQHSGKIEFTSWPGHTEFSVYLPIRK

CCCCC1=C(Br)/C(=C/Br)OC1=O [Compound 2]
growth response (optical density) [1]: induction of cell lysis
Minimum inhibitory (growth) concentration, Staphylococcus aureus (Staphylococcus aureus): 1 to 10 µg/mL

CCC[C@@H](OC(C)=O)C1=C(Br)/C(=C/Br)OC1=O [Compound 3]
cop'-lacZ expression ([2]; 25 μg/ml): significantly reduced
cop'-lacZ expression ([2]; 50 μg/ml): significantly reduced
growth inhibitory effects ([2]; at the concentrations used (25 and 50 μg/ml), P. syringae pv syringae): did not have any growth inhibitory effects
swarming pattern ([3]; 25 μg/ml, 36 hours): dramatically alters the swarming pattern
growth of P. syringae var. tomato ([3]; 50 μg/ml): did not inhibit the growth
swarming ([3]; 50 μg/ml, 36 hours): shut down swarming

CCC[C@@H](O)C1=C(Br)/C(=C/Br)OC1=O [Compound 4]
normal activity of the CopS/CopR two-component signal transduction system ([2]; concentration not given): appeared to reduce the normal activity
Minimum inhibitory (growth) concentration, Streptococcus spp. (Streptococcus spp.): 10 µg/mL

O=C1C=C(Br)/C(=C/Br)O1 [Compound 30]
swarming response in P. syringae ([3]; concentration not given): inhibited the swarming response
Minimum inhibitory (growth) concentration, Staphylococcus aureus (Staphylococcus aureus): 1 to 20 µg/mL
Minimum inhibitory (growth) concentration, Streptococcus spp. (Streptococcus spp.): 10 µg/mL

CCCCCC(Br)C1=C(Br)/C(=C/Br)OC1=O (centres unmarked) [Compound 33]
Minimum inhibitory (growth) concentration, Staphylococcus aureus (Staphylococcus aureus): 0.5 µg/mL

CCCCCC(Br)C1=CC(=C(Br)Br)OC1=O (centres unmarked) [Compound 34]
Minimum inhibitory (growth) concentration, Staphylococcus aureus (Staphylococcus aureus): 0.25 µg/mL

NC(N)=NCCc1ccc(OCCC(c2ccccc2)(c2ccccc2)c2ccccc2)cc1 [RWJ-49815]
active concentration (antibacterial) (S. aureus): 1 to 2 µg/mL
active concentration (antibacterial) (E. faecium): 1 to 2 µg/mL
active concentration (antibacterial) (Streptococcus pneumoniae): 1 to 2 µg/mL
autophosphorylation of the HPK NRII (HPK NRII): inhibited the autophosphorylation
permeability of the membranes of S. aureus cells (S. aureus cells): caused a rapid increase in the permeability
